Test results: the METLIN SMRT retention time set (Domingo-Almenara et al. 2019)

Test: gradient 5% acetonitrile 3 min, to 50% in 2 min, to 85% in 15 min, held 3 min, 100 µL/min
Details: column: Zorbax Extend-C18 2.1 x 50 mm; eluents: water / acetonitrile, 0.1% formic acid
Method in brief: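 Mixtures of ~100 pure standards were chromatographed on a Zorbax Extend-C18 column (2.1 × 50 mm, 1.8 μm) at 100 μL/min using water and acetonitrile, each with 0.1% formic acid. Detection used a quadrupole time-of-flight mass spectrometer in positive and negative ionization mode, and data collection spanned 3 months. Retention time was obtained from adduct peaks picked computationally and each checked manually.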

Row | Structure (SMILES) | RP-LC retention time
1 | CCOc1ccc(-n2c(CN3CCN(C(=O)NCC(C)C)CC3)nc3cccnc32)cc1 | 654 s
2 | Cc1cccc(NS(=O)(=O)c2cn(CC(C)C)c3ncccc23)c1 | 960 s
3 | Cc1sc(NC(=O)c2cccc(Cl)c2)nc1-c1ccc2c(c1)NC(=O)C(C)O2 (stereo unspecified) | 1040 s
4 | COc1ccc(-c2nnc(-c3ccc(Cl)c(S(=O)(=O)N4CCOCC4)c3)o2)cc1OC | 884 s
5 | Cc1ccc(-c2nc(-c3ccc4c(c3)ncn4CCN3CCCC3)no2)s1 | 639 s
6 | Cc1nc2ccccc2n(CCC(=O)NCCc2c[nH]c3ccc(Cl)cc23)c1=O | 795 s
7 | CCOCCCNC(=O)N1CC(Oc2cccc(-c3nc(C)no3)c2)C1 | 735 s
8 | COc1ccc(C(C)NC(=O)CCc2nnc3c4cc(-c5ccc(F)cc5)nn4ccn23)cc1OC (stereo unspecified) | 722 s
9 | Cc1ccc(NS(=O)(=O)c2cc(-c3[nH]ncc3C(=O)N(C)C)oc2C)c(C)c1 | 739 s
10 | O=S(=O)(c1ccc2c(c1)OCCO2)N1CCN(S(=O)(=O)C2CC2)CC1 | 762 s
11 | CCC1CN(CC(=O)NCCN(CC)CC)c2ccccc2S1 (stereo unspecified) | 680 s
12 | CCOC(=O)C(CC)Sc1ccc(NC(=O)c2cccs2)nn1 (stereo unspecified) | 908 s
13 | O=c1c2nc(-c3ccc(F)cc3)cn2ccn1-c1ccc(F)cc1 | 795 s
14 | Cc1ccc(CNC(=O)C2(C)CCN(C(=O)Nc3ccc(C)c(F)c3)CC2)cc1 | 914 s
15 | COC(=O)c1c(C)[nH]c(C(=O)N2CCCC(C(=O)NCc3ccc(C)cc3)C2)c1C (stereo unspecified) | 754 s
16 | CCOC(=O)c1cc(C2CC2)nc2c1c(=O)n(Cc1ccccc1F)c(=O)n2C | 1140 s
17 | CC(=O)N1c2ccc(S(=O)(=O)N3CCCC3)cc2CC1C(=O)NC1CCCCCCC1 (stereo unspecified) | 907 s
18 | COc1cc(NC(=O)c2sc(-c3cn(C)c4ncccc34)nc2C)cc(OC)c1 | 764 s

Row | Structure (SMILES) | RP-LC retention time
19 | CN(C)S(=O)(=O)c1ccc(C(=O)N2CC(=O)Nc3ccc(Cl)cc3C2c2ccccc2)cc1 (stereo unspecified) | 873 s
20 | O=C(C1=CN(c2ccc(F)c(F)c2)c2ccccc2S1(=O)=O)N1CCOCC1 | 751 s
21 | O=C(CSc1nc(N2CCCCC2)nc2ccccc12)Nc1ccc2c(c1)OCO2 | 694 s
22 | CCC(Oc1ccc(-c2cnc3ccccc3n2)cc1)C(=O)N1CCN(c2ncccn2)CC1 (stereo unspecified) | 942 s
23 | CCOc1ccc(-n2ccn3cc(-c4cc(C)ccc4C)nc3c2=O)cc1 | 951 s
24 | Cn1nc(CNC(=O)CNC(=O)Cc2ccc(Cl)cc2)c2ccccc21 | 742 s
25 | CC(Oc1cccc(Cl)c1)C(=O)N1CCn2cnnc2C1 (stereo unspecified) | 622 s
26 | O=C(Cn1cc(-c2ccccc2)c2ncnc(N3CCOCC3)c21)N1CCCCC1 | 700 s
27 | Cc1nn(-c2ccc(F)cc2)c2nc(N3CCCC(C(=O)NCCc4ccco4)C3)sc12 (stereo unspecified) | 1080 s
28 | c1cc2c(cc1-c1noc(CCC3CCCC3)n1)nnn2CCN1CCOCC1 | 780 s
29 | CC(C)n1cc(S(=O)(=O)Nc2cc(F)ccc2Cl)c2cccnc21 | 989 s
30 | COc1ccc2c(ccn2CCNC(=O)C2CC(=O)N(c3n[nH]c4ccccc34)C2)c1 (stereo unspecified) | 722 s
31 | CC(C)N1CCN(c2ncc(C(=O)NCc3ccccc3)c(N)n2)CC1 | 595 s
32 | O=C(Cc1ccc(Cl)s1)Nc1nnc(-c2cc3ccccc3o2)o1 | 843 s
33 | O=C(Nc1cccc(-c2nnc3n2CCCC3)c1)c1ccc2ccccc2n1 | 779 s
34 | CC(C)NC(=O)C(=O)NCC(c1ccc2c(c1)CCCN2C)N1CCCCC1 (stereo unspecified) | 671 s
35 | COc1ccc(-c2cc(N3CCN(C(=O)c4ccc(Br)o4)CC3)ncn2)cc1 | 591 s
36 | CSc1cccc(NC(=O)N2CCN(c3cc(C)nc(N4CCCC4)n3)CC2)c1 | 696 s
